Experimental data published in US10874685B2, “Pancreatic cancer therapy and diagnosis” (Deutsches Krebsforschungszentrum Stiftung des Öffentlichen …, priority 2014, dated 2020).
“Also recorded” adds a separate entry of the source.

How the values were obtained:
[1] = system: Fibroblast (non-cancer cells); experiment: Sulforhodamine B (SRB) cytotoxicity assay on fibroblasts; assay type: cell-based, human; conditions: increasing concentration, 72 h
Procedure: PANC-1, CFPAC-1, CAPAN-1, MIAPaCa-2, BXPC-3 and fibroblast cells were seeded for 24 h and were exposed to increasing concentration of Pimozide and vehicle for 72 h (FIG. 3A). The same procedure was followed for treatment of cancer cell lines with L741 (FIG. 3B). Cell viability was characterized using a SRB assay. Values are the mean+/−SD of six independent experiments.
Five pancreatic ductal cancer cell lines with various degree of differentiation were obtained from American Type Culture Collection (Rockville, USA) and Normal Human Dermal Fibroblasts (NHDF) obtained from PromoCell. BXPC-3 (moderately differentiated) as well as poorly differentiated human pancreatic cancer cell lines, PANC-1 and MIAPaCa-2, have been established from primary tumor. AsPC-1, CAPAN-1 and CFPAC-1 which represent well differentiated cell lines was isolated from ascites and liver metastasis of pancreas adenocarcinoma. All cell lines contain mutation in P53 whereas K-ras mutation reported in all with the exception of BxPc3. BRCA2 mutation just reported in CAPAN-1 cells.
Sulforhodamine B sodium salt (sigma) was used to assess cell viability and IC50 determination of pancreatic cancer cells. […] Cell viability was specified by using plate reader (TECAN) with measuring of absorbance at 570 and 650 nm (background) in treated or untreated 96 well plate.

PANC-1 cells = experiment: Transwell (Boyden chamber) migration assay, PANC-1; assay type: cell-based, human; conditions: PANC-1, Boyden chamber, increasing doses, 4 h
MIAPaCa-2 cells = experiment: Orthotopic pancreatic tumor mouse model treated with DRD2 antagonists; assay type: in vivo, mice; conditions: compared to vehicle
Procedure: Two million MIAPaCa-2 cells were resuspended in 10 μL Matrigel (BD Biosciences, San Jose, Calif.) were orthotopically implanted into the tail of the pancreas of 6-week-old Nod scid gamma animals (Jackson Labs, Bar Harbor, Me.) (day 1). When tumors were palpable (day 27), mice were randomized into 2 groups (n=7 in control group and n=9 in haloperidol group) and injected intraperitoneally with either haloperidol (10 mg/kg) or solvent (dimethylsulfoxide [DMSO] control group) for 12 days. The experiment was terminated when control mice appeared moribund. Weight of the animal and final tumor weight and volume were measured.

[2] = system: KPC-023, KPC-01 and KPC-LM pancreatic cancer cell lines; experiment: Viability of primary and metastatic pancreatic cancer cell lines isolated from KPC mice; assay type: cell-based; conditions: primary (KPC-023, KPC-01) and metastatic (KPC-LM) lines
[3] = system: MIAPaCa-2, PANC-1 and AsPC-1 cells; experiment: Free cholesterol measurement (Filipin staining) in PDAC cell lines; assay type: cell-based, human; conditions: 10 μM, 18 hours; vs DMSO
From the text: (§1) Measurement of 2-deoxy-D-glucose uptake shown on the y-axis relative to control by PDAC cell lines (MIAPaCa2, left; PANC-1, middle; AsPC1, right) treated with DMSO (C), pimozide (P) or haloperidol (H) (FIG. 10A). Abundance of free cholesterol, as measured by staining with filipin, after treatment with haloperidol (H) or pimozide (P) in PDAC cell lines (MIAPaCa2, left; PANC-1, middle; AsPC1, right) (FIG. 10B top). Representative micrographs of filipin-labelled cholesterol. PDAC (MIAPaCa2, top; PANC-1, middle; AsPC1, bottom) cells were seeded for 24 hours and treated with 10 μM haloperidol (H) or pimozide (P) or DMSO for 18 hours (FIG. 10B bottom). Red-fluorescence represents propidium iodide (PI)-stained nuclei and blue-fluorescence represents filipin-stained cholesterol. mRNA levels of genes relative to R-actin shown on the y-axis involved in cholesterol biosynthesis (from left to right: SREBP1, SREBP2, INSIG1, HMGCR, LDLR) measured by qRT-PCR 18 hours post-treatment with DMSO (C), haloperidol (H) or pimozide (P) in three PDAC cell lines (MIAPaCa2, top; PANC-1, middle; AsPC1, bottom) (FIG. 10C).
Cancer cells were seeded for 24 hours and treated with pimozide, haloperidol or DMSO for 18 hours. The cells were fixed with paraformaldehyde, stained with Filipin™ and propidium iodide (PI), and photographed. Filipin™ is a fluorescent polyene antibiotic that binds to free cholesterol. […]

[4] = system: SREBP1, SREBP2, INSIG1, HMGCR, LDLR mRNA; experiment: qRT-PCR of cholesterol biosynthesis genes in PDAC cell lines; assay type: cell-based, human; conditions: qRT-PCR 18 hours post-treatment; relative to actin
From the text: as §1
For mice xenograft tissue samples and cultured cells, the miRNeasy kit (Qiagen, Valencia, Calif.) was used to extract total RNA. […] Quantification values were calculated according to a standard curve method created from a dilution series. […]

In the case of O=c1[nH]c2ccccc2n1C1CCN(CCCC(c2ccc(F)cc2)c2ccc(F)cc2)CC1 [pimozide], the “cell viability of fibroblasts versus cancer cells” value [1] is reported as “not as much to Fibroblast”, the migrated cells (PANC-1 cells) is reported as “significantly reduced migrated cells; also recorded: Dose dependent inhibitory effect” and the metastatic dissemination (MIAPaCa-2 cells) is reported as “reduces tumor volume, metastasis”. The tumor volume (MIAPaCa-2 cells; haloperidol 10 mg/kg intraperitoneally for 12 days) was “reduces tumor volume”, the “viability of KPC mouse pancreatic cancer cell lines” value [2] was “sensitive; also recorded: Dose-dependent effects” and the “abundance of free cholesterol (Filipin staining)” value [3] was “increased the abundance of free cholesterol; also recorded: enhanced glucose and cholesterol uptake”. The “expression of genes involved in lipogenesis / cholesterol biosynthesis” value [4] was “inducing expression of genes involved in lipogenesis”.
